# Data: patent publication US10709788B2, “Chitosan magnetic particle drug carrier, drug structure, and method of making” (GENE'E TECH CO., LTD., priority 2018, dated 2020)
# Read-outs that look alike come from different tables or passages of the source.
# Columns and labels:
# H. pylori [1] = assay: minimum inhibitory concentrations (MIC) for seven strains of H. pylori; format: cell-based; details: Helicobacter pylori, read-out: minimum inhibitory concentration (MIC)
# H. pylori [2] = assay: Test of inhibition of H. pylori by drug structure (OD 450 nm, bacterial inhibition rate); format: cell-based; details: seven strains; added at minimum inhibitory concentration; 37° C., anaerobic, 48 hours
# Description: First, bacterial fluids of seven different strains of H. pylori are provided. […] The bacterial fluids of the seven different strains of H. pylori are placed in four 15 ml microcentrifuge tubes, respectively. Each microcentrifuge tube contains 5 ml of H. pylori bacterial fluid. The four microcentrifuge tubes are defined as experimental group 1, experimental group 2, experimental group 3 and control group, respectively. Then, amoxicillin of the minimum inhibitory concentration is added to experimental group 1 of each strain of H. pylori, sample 3 (i.e., drug carrier) of the minimum inhibitory concentration is added to experimental group 2 of each strain of H. pylori, sample C (i.e., drug structure) of amoxicillin of the minimum inhibitory concentration is added to experimental group 3 of each strain of H. pylori, and nothing is added to the control group. Afterward, experimental groups 1-3 and control group of each strain of H. pylori are placed in an incubator to be cultured therein at 37° C., in an anaerobic environment, and for 48 hours. At the end of the 48-hour culturing process, bacterial fluids are extracted from the experimental groups 1-3 and control group of the strains of H. pylori, respectively. OD values of the bacterial fluid of the experimental groups and the bacterial fluid of the control group are measured with a spectrophotometer at a wavelength of 450 nm. […]
compound,measurement,setting,value
CC1(C)S[C@@H]2[C@H](NC(=O)[C@H](N)c3ccc(O)cc3)C(=O)N2[C@H]1C(=O)O [amoxicillin],MIC,H. pylori [1]; H. pylori strain NO. 125-54,0.5 µg/mL
same,MIC,H. pylori [1]; H. pylori strain NO. 125-56,0.25 µg/mL
same,MIC,H. pylori [1]; H. pylori strain NO. 125-57,0.25 µg/mL
same,MIC,H. pylori [1]; H. pylori strain NO. 126-6,0.016 µg/mL
same,MIC,H. pylori [1]; H. pylori strain NO. 127-4,0.0625 µg/mL
same,MIC,H. pylori [1]; H. pylori strain NO. 127-9,0.0625 µg/mL
same,MIC,H. pylori [1]; H. pylori strain NO. 127-10,0.125 µg/mL
same,inhibitory effect on H. pylori,H. pylori [2],different degrees of inhibition efficacy
